# Measurements taken from PubChem BioAssay (NCI).
#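 How tested: cells in 96-well plates exposed to compound for 48 hours at five concentrations. Here, GI50 denotes the concentration required for 50% inhibition of growth. At the TGI there is no net growth.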
# Legend:
# Test in all cases: NCI-60 cell line screen, 48 h
# NCI-H23 lung = tested on: NCI-H23 lung
# NCI-H460 lung = tested on: NCI-H460 lung
# NCI-H522 lung = tested on: NCI-H522 lung
# NCI/ADR-RES ovarian = tested on: NCI/ADR-RES ovarian
# OVCAR-3 ovarian = tested on: OVCAR-3 ovarian
# OVCAR-4 ovarian = tested on: OVCAR-4 ovarian
# OVCAR-5 ovarian = tested on: OVCAR-5 ovarian
# OVCAR-8 ovarian = tested on: OVCAR-8 ovarian
# RPMI-8226 leukemia = tested on: RPMI-8226 leukemia
# RXF 393 renal = tested on: RXF 393 renal
# SF-268 CNS = tested on: SF-268 CNS
# SF-295 CNS = tested on: SF-295 CNS
# SF-539 CNS = tested on: SF-539 CNS
# SK-MEL-2 melanoma = tested on: SK-MEL-2 melanoma
# SK-MEL-28 melanoma = tested on: SK-MEL-28 melanoma
# SK-MEL-5 melanoma = tested on: SK-MEL-5 melanoma
# SK-OV-3 ovarian = tested on: SK-OV-3 ovarian
# SN12C renal = tested on: SN12C renal
# SNB-19 CNS = tested on: SNB-19 CNS
# SNB-75 CNS = tested on: SNB-75 CNS
# SR leukemia = tested on: SR leukemia
# SW-620 colon = tested on: SW-620 colon
# T-47D breast = tested on: T-47D breast
# TK-10 renal = tested on: TK-10 renal
# U251 CNS = tested on: U251 CNS
# UACC-257 melanoma = tested on: UACC-257 melanoma
# UACC-62 melanoma = tested on: UACC-62 melanoma
# UO-31 renal = tested on: UO-31 renal
compound,measurement,setting,value
O=C1c2ccccc2-c2c1c1c(NCCCO)nc3ccccc3c1n2Cc1ccccc1,GI50,NCI-H23 lung,14.4 µM
same,TGI,NCI-H23 lung,34.9 µM
same,GI50,NCI-H460 lung,17.5 µM
same,TGI,NCI-H460 lung,38.1 µM
same,GI50,NCI-H522 lung,26 µM
same,TGI,NCI-H522 lung,96.3 µM
same,GI50,NCI/ADR-RES ovarian,18.2 µM
same,TGI,NCI/ADR-RES ovarian,49.4 µM
same,GI50,OVCAR-3 ovarian,19.8 µM
same,TGI,OVCAR-3 ovarian,45.9 µM
same,GI50,OVCAR-4 ovarian,23 µM
same,TGI,OVCAR-4 ovarian,57 µM
same,GI50,OVCAR-5 ovarian,18 µM
same,TGI,OVCAR-5 ovarian,39.9 µM
same,GI50,OVCAR-8 ovarian,35 µM
same,TGI,OVCAR-8 ovarian,> 100 µM
same,GI50,RPMI-8226 leukemia,14.3 µM
same,TGI,RPMI-8226 leukemia,27.3 µM
same,GI50,RXF 393 renal,32.5 µM
same,TGI,RXF 393 renal,86.6 µM
same,GI50,SF-268 CNS,22.7 µM
same,TGI,SF-268 CNS,51.9 µM
same,GI50,SF-295 CNS,22.3 µM
same,TGI,SF-295 CNS,45.3 µM
same,GI50,SF-539 CNS,18.5 µM
same,TGI,SF-539 CNS,36.7 µM
same,GI50,SK-MEL-2 melanoma,20.4 µM
same,TGI,SK-MEL-2 melanoma,52.3 µM
same,GI50,SK-MEL-28 melanoma,20.6 µM
same,TGI,SK-MEL-28 melanoma,38.1 µM
same,GI50,SK-MEL-5 melanoma,31 µM
same,TGI,SK-MEL-5 melanoma,> 100 µM
same,GI50,SK-OV-3 ovarian,21.9 µM
same,TGI,SK-OV-3 ovarian,40.4 µM
same,GI50,SN12C renal,26 µM
same,TGI,SN12C renal,62.5 µM
same,GI50,SNB-19 CNS,27.8 µM
same,TGI,SNB-19 CNS,73.1 µM
same,GI50,SNB-75 CNS,20.7 µM
same,TGI,SNB-75 CNS,39.8 µM
same,GI50,SR leukemia,6.04 µM
same,TGI,SR leukemia,24.1 µM
same,GI50,SW-620 colon,27.4 µM
same,TGI,SW-620 colon,> 100 µM
same,GI50,T-47D breast,21 µM
same,TGI,T-47D breast,46.4 µM
same,GI50,TK-10 renal,23 µM
same,TGI,TK-10 renal,41.1 µM
same,GI50,U251 CNS,20.8 µM
same,TGI,U251 CNS,44.9 µM
same,GI50,UACC-257 melanoma,41.3 µM
same,TGI,UACC-257 melanoma,> 100 µM
same,GI50,UACC-62 melanoma,18.7 µM
same,TGI,UACC-62 melanoma,36.5 µM
same,GI50,UO-31 renal,24.6 µM
same,TGI,UO-31 renal,73.7 µM
